# Results as given in PubChem BioAssay AID624258 (Broad Institute, 2012).
# “And” between values parts separate entries of the source, which are not always exact repeats. Identical values can stand only once. The source made the active and inactive calls. The rule behind the calls is not given here.
# Assay: Yeast SKN7 toxicity growth rescue counterscreen, Saccharomyces cerevisiae, plate reader, dose confirmatory (AID 624258);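 note: growth read after three days of incubation at 30 °C; 0% = median of neutral control wells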
# Details: S. cerevisiae SKN7-toxicity growth rescue, plate reader; at 19.5 µM (top of the series)
row,SMILES,growth rescue activity
1,O=S1(=O)CCN2C(=N1)Sc1c2ccc2c1CCCC2,5.5% (inactive)
2,Cc1ccc(S(=O)(=O)/N=C2/C=C(C3C(=O)CC(C)(C)CC3=O)C(=O)c3ccccc32)cc1,18.5% (inactive)
3,CCCCCC1CCC(c2ccc(/C(N)=N/O)cc2)CC1 (stereo not drawn),-61.8% (inactive)
4,Cc1nc(Sc2ccccc2)c(C#N)c(C)c1[N+](=O)[O-],147% (inactive)
5,CCN1/C(=C/c2sc(-c3ccccc3C)c[n+]2C)Sc2ccccc21,-60.6% (inactive)
6,Cc1cc(/C=C2\SC(=S)N(C)C2=O)c(C)n1-c1ccc(O)cc1,-39.6% (inactive)
7,O=S(=O)(NCCc1csc(-c2cccnc2)n1)c1ccc(Cl)s1,-65.2% (inactive)
8,O=C(Nc1nnc(-c2ccccc2)o1)c1ccc(Cl)cc1,-46.1% (inactive)
9,Cn1c(SCC(=O)N2c3ccccc3Sc3ccc(Cl)cc32)nnc1-c1ccco1,-51.2% (inactive)
10,O=C1c2cccc3cc([N+](=O)[O-])cc(c23)C(=O)N1CC1CCCO1 (stereo not drawn),23.2% (inactive)
11,O=C(Nc1nc(-c2ccccn2)cs1)c1ccc(Br)s1,-44.2% (inactive)
12,CCCCNC(=S)N/N=C1\CCCCc2ccccc21,-53.8% (inactive)
13,CCC(CC)C(=O)N1CCN(c2cccc(C)c2C)CC1,-12.1% (inactive)
14,CC1=C(C)C(=O)C(CCCCC#CCCCC#CCO)=C(C)C1=O,-34.8% (inactive)
15,Oc1ccccc1-c1cc(-c2ccc3c(c2)OCCO3)n[nH]1,2.6% (inactive)
16,CC(C)C(=O)NC(c1cccc([N+](=O)[O-])c1)c1ccc2cccnc2c1O (stereo not drawn),-62.7% (inactive)
17,O/N=C(\c1ccc(Cl)cc1)c1cc2ccccc2o1,3.39% (inactive)
18,COc1ccc2c(c1)OC[C@H]1[C@H]2N2C(=O)c3cc(C)ccc3NC(=O)[C@@]2(C)[C@H]1c1ccccc1,122% (inactive)
19,O=C(c1ccccc1)N1C(=O)C(c2ccccc2)Oc2ccccc21 (stereo not drawn),-57.4% (inactive)
20,CN(C)c1nc(-c2ccccn2)nnc1-c1ccccc1,-23.6% (inactive)
21,Cc1cc(Nc2ccccc2)nn1C(=O)c1ccccc1,7.09% (inactive)
22,Cc1cccc(Nc2nc(-c3ccccn3)cs2)n1,-59.7% (inactive)
23,O=C(O)CSc1cc(NS(=O)(=O)c2ccc(Br)cc2)c2ccccc2c1O,30.5% (inactive)
24,COC(=O)COC(=O)c1ccccc1NC(=O)c1ccccc1,-40.9% (inactive)

row,SMILES,growth rescue activity
1,O=[N+]([O-])c1ccc(S(=O)(=O)c2ccccc2)nc1,10.3% (inactive)
2,COc1ccc(O)c(C(=O)CC(=O)c2ccc(F)cc2)c1,-74.9% (inactive)
3,CC(C)CNC(=O)COC(=O)c1ccc([N+](=O)[O-])cc1Cl,3.79% (inactive)
4,COc1ccc(OC)c(-c2c3cc(O)c(=O)cc-3oc3cc(O)c(O)cc23)c1,26.2% (inactive)
5,COC(=O)C(=N/Nc1ccccc1C(=O)OC)/C(C)=N/O,-7.81% (inactive)
6,CCn1c2ccc(C)cc2c2nc3cc(C(=O)O)ccc3nc21,18.7% (inactive)
7,S=C1NC[C@H](c2ccccc2)N1CCCCC1CCCCC1,85.2% (inactive)
8,Clc1ccccc1C(c1ccccc1)(c1ccccc1)n1ccnc1,-48.3% (inactive)
9,COc1ccc(C2=CC(=O)C[C@H](c3ccc4c(c3)OCO4)C2)cc1,89.7% (inactive)
10,O=c1c(CO)cc(CO)cc(CO)c1O,-26.9% (inactive)
11,CC1(S(=O)(=O)O)CC(=O)c2ccccc2C1=O (stereo not drawn),-12.1% (inactive)
12,O/N=C/c1ccccc1OCc1ccc(Cl)cc1,10.8% (inactive)
13,O=CC1=C(c2ccccc2)Oc2ccccc2O1,-88.1% (inactive)
14,CCn1c(-c2cc(-c3ccc(C)cc3)nc3ccccc23)n[nH]c1=S,-24.4% (inactive)
15,NC(=O)N=Nc1c2[nH]c3ccccc3nc-2c2ccccc12,6.67% (inactive)
16,CCC(C(=O)c1ccc2ncccc2c1)c1ccccc1 (stereo not drawn),-32.2% (inactive)
17,CC(=O)NC(c1cccc([N+](=O)[O-])c1)c1ccc2cccnc2c1O (stereo not drawn),-39.9% (inactive)
18,O=c1[nH]c2c(c(=O)[nH]1)OCN(Cc1ccccc1)C2,-23.4% (inactive)
19,Oc1c(I)cc(Cl)c2cccnc12,-81.1% (inactive)
20,Cc1cccc2sc(NNC(=O)c3ccc(S(=O)(=O)N4CCCC(C)C4)cc3)nc12 (stereo not drawn),-51.9% (inactive)
21,O=C(Oc1ccccc1C(=S)N1CCOCC1)c1ccc([N+](=O)[O-])cc1[N+](=O)[O-],-8.27% (inactive)
22,O=C(c1ccccc1)c1ccc(Cn2cc(-c3ccccc3)nn2)cc1,19.2% (inactive)
23,COc1nc(NC23CC4CC(CC(C4)C2)C3)nc(OC)n1,145% (inactive)
24,CC(=N/O)/C(=N\O)c1ccc(C)o1,3.21% (inactive)

row,SMILES,growth rescue activity
1,O=C(CN1CC[n+]2c(-c3cccs3)csc21)c1ccc(-c2ccccc2)cc1,-63.4% (inactive)
2,Cc1nc2ccc(C(=O)NCc3ccc4c(c3)OCO4)cc2s1,-2.94% (inactive)
3,Nc1ccc(CC2=NCCN2)cc1,34.1% (inactive)
4,COc1cccc2c1C(=O)c1c(O)c3c(c(O)c1C2=O)CC(O)(C(C)=NNC(=O)c1ccc(Cl)c(Cl)c1)CC3OC1CC(N)C(O)C(C)O1 (stereo not drawn),23.8% (inactive)
5,CCOC(=O)C1=NN(c2ccccc2)C(=O)/C1=C\c1ccc(N(C)C)cc1,-16.7% (inactive)
6,CCCCC(=O)NC(=S)NNC(=O)CCc1ccccc1,-22.9% (inactive)
7,COc1ccc(N/N=C(\C#N)C(N)=O)cc1,-58.5% (inactive)
8,COc1ccc(-c2oc3ccccc3c2C#Cc2cncn2C)cc1,-49.1% (inactive)
9,Cn1cncc1C#Cc1c(-c2ccsc2)sc2ccccc12,-77.3% (inactive)
10,O=[N+]([O-])c1ccc(/C=N/NC(=S)Nc2ccc(Cl)cc2Cl)s1,-44% (inactive)
11,CC(CNC(=O)COc1ccccc1)OC(=O)Nc1ccc(Cl)c(Cl)c1 (stereo not drawn),-93.2% (inactive)
12,CC[n+]1c(/C=C/C=C/c2ccc(N(C)C)cc2)sc2ccccc21,-38.5% (inactive)
13,O=C(/C(=N/N=C/c1ccc(O)c(O)c1O)c1ccccc1)c1ccccc1,-75.4% (inactive)
14,O=C(Oc1c(-c2ccccc2)c(=O)n2c3c(cccc13)CC2)c1cccc([N+](=O)[O-])c1,-37.6% (inactive)
15,Cc1ccc(Sc2ccc(NC(=O)CCl)cc2)cc1C,-34.2% (inactive)
16,O=C(c1ccccc1)c1coc2c1C(=O)c1ccccc1C2=O,18.2% (inactive)
17,CN(Cc1cccc(F)c1)C(=O)c1ccc(S(=O)(=O)N2CCCCCC2)cc1,-8.45% (inactive)
18,O=C(COC(=O)c1ccc([N+](=O)[O-])o1)NC12CC3CC(CC(C3)C1)C2,-18.4% (inactive)
19,C=CCNC(=S)N1CCC(Cc2ccccc2)CC1,-41% (inactive)
20,COc1ccc(C(C)(C)C)cc1NC(=O)COC(=O)c1ccc([N+](=O)[O-])o1,-88.2% (inactive)
21,C[n+]1c2cc(N)ccc2cc2ccc(N)cc21,-24.4% (inactive) and -10% (inactive)
22,Cc1ccccc1CN(C)CCS(=O)(=O)c1cc(Cl)ccc1Cl,-67.7% (inactive)
23,FC(F)(F)c1nc(SCc2ccc(Cl)cc2Cl)n[nH]1,-80.8% (inactive)
24,Cn1ccsc1=NC(=O)c1ccc([N+](=O)[O-])o1,-53.8% (inactive)

row,SMILES,growth rescue activity
1,O=C(O)c1ccccc1NC(c1ccccc1)c1ccc2cccnc2c1O (stereo not drawn),-59.1% (inactive)
2,CN(C)S(=O)(=O)Oc1cccc(C(=O)Nc2ccc(Cl)cc2)c1,-19.4% (inactive)
3,Cc1ccc(NC(=O)C2COc3ccccc3O2)cc1S(=O)(=O)N1CCCCC1 (stereo not drawn),35.9% (inactive)
4,Nc1nc2sc3c(c2c(=O)s1)CCCC3,-93.9% (inactive)
5,CNc1cc(CSC)nc(SCc2ccc(Cl)cc2Cl)n1,-57.8% (inactive)
6,CC12CC3(C)CC(C)(C1)CC(NC(=O)N1CCCC1)(C2)C3,-73.5% (inactive)
7,Oc1c(Cl)c(Cl)c(Cl)c(Cl)c1Cl,-82.9% (inactive)
8,CC[C@@H](C(=O)[C@@H](C)[C@@H](O)[C@H](C)[C@@H]1O[C@@H]([C@@H](CC)C(=O)O)CC[C@@H]1C)[C@H]1O[C@]2(C=C[C@@H](O)[C@]3(CC[C@@](C)([C@H]4CC[C@](O)(CC)[C@H](C)O4)O3)O2)[C@H](C)C[C@@H]1C,-61.6% (inactive)
9,COc1ccc(N(C)S(=O)(=O)c2ccc(Cl)c(C(=O)NNC(=O)c3ccccc3O)c2)cc1,4.7% (inactive)
10,CCc1cc(C(=O)Nc2nc(-c3ccccn3)cs2)sc1C,-67.6% (inactive)
11,Clc1ccc(COC(Cn2ccnc2)c2ccc(Cl)cc2Cl)c(Cl)c1 (stereo not drawn),-74.2% (inactive) and -75.5% (inactive)
12,Cc1cc(OCc2cccc(S(=O)(=O)N3CCOCC3)c2)ccc1Cl,66.7% (inactive)
13,O=C1C(Nc2ccccc2)=C/C(=N/S(=O)(=O)c2cccs2)c2ccccc21,-8.54% (inactive)
14,N#Cc1c(-c2ccco2)c2c([nH]c1=S)CCCC2,-16.7% (inactive)
15,COCCn1c(=NC(=O)CSC(C)=O)sc2cc(F)ccc21,56.5% (inactive)
16,O=[N+]([O-])c1ccc(S(=O)Cc2ccccc2)c([N+](=O)[O-])c1 (stereo not drawn),-45.8% (inactive)
17,O=C1C=C(N(CCO)Cc2ccccc2)c2ccccc2C1=O,12.2% (inactive)
18,O=C1OC(c2ccccc2)=NC12CC2c1ccc(Cl)cc1 (stereo not drawn),-72.5% (inactive)
19,O=C(c1ccc(-c2ccccc2)c(F)c1)C1CCCN(C(=O)c2cncs2)C1 (stereo not drawn),-45.2% (inactive)
20,N#Cc1c(-c2ccc(Cl)cc2)nc2n(c1=O)CCCS2,35.4% (inactive)
21,CCCc1c(C)nn(C(=O)/C(C#N)=N/Nc2ccccc2[N+](=O)[O-])c1C,-8.75% (inactive)
